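Growth conditions: 96-well plates. Treatment: test compound, 48 hours, 5 concentrations. Analysis: linear interpolation between bracketing concentrations; unreached endpoints set to highest concentration. Abbreviation: GI50, concentration required for 50% inhibition of growth. TGI: total growth inhibition.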
What was measured:
Assay in all cases: NCI tumour cell line growth inhibition, 48 h
KM12 colon = system: KM12 colon
A549 NSCLC = system: A549 NSCLC
HCT-15 colon = system: HCT-15 colon
T-47D breast = system: T-47D breast
OVCAR-8 ovarian = system: OVCAR-8 ovarian
SNB-75 CNS = system: SNB-75 CNS
HL-60(TB) leukemia = system: HL-60(TB) leukemia
HT29 colon = system: HT29 colon
UACC-257 melanoma = system: UACC-257 melanoma
TK-10 renal = system: TK-10 renal

Row | SMILES | GI50 (KM12 colon) | TGI (KM12 colon) | GI50 (A549 NSCLC) | TGI (A549 NSCLC) | GI50 (HCT-15 colon) | TGI (HCT-15 colon) | GI50 (T-47D breast) | TGI (T-47D breast) | GI50 (OVCAR-8 ovarian) | TGI (OVCAR-8 ovarian) | GI50 (SNB-75 CNS) | TGI (SNB-75 CNS) | GI50 (HL-60(TB) leukemia) | TGI (HL-60(TB) leukemia) | GI50 (HT29 colon) | TGI (HT29 colon) | GI50 (UACC-257 melanoma) | TGI (UACC-257 melanoma) | GI50 (TK-10 renal) | TGI (TK-10 renal)
1 | O=c1c2sc(=S)n(-c3ccc(F)cc3)c2ncn1Cc1ccc(F)cc1F | > 100 µM | > 100 µM | 92.1 µM | > 100 µM | > 100 µM | > 100 µM | > 100 µM | > 100 µM | > 100 µM | > 100 µM | 94 µM | > 100 µM | > 100 µM | > 100 µM | > 100 µM | > 100 µM | > 100 µM | > 100 µM | 96 µM | > 100 µM
2 | CNC(=O)N(C)N=NCCCl |  | > 100 µM |  | > 100 µM |  | > 100 µM |  | > 100 µM |  | > 100 µM |  | > 100 µM |  | > 100 µM |  | > 100 µM |  | > 100 µM |  | > 100 µM
3 | CCCCCCCCCCCCOC1C(C(COC2OC(C3COC(C)(C)O3)C3OC(C)(C)OC23)NC(=O)Nc2ccc(C(=O)O)cc2)OC2OC(C)(C)OC21 (stereo not drawn) | 2.22 µM | 4.36 µM | 3.34 µM | 10.9 µM | 2.63 µM | 6.7 µM | 3.39 µM | 13.5 µM | 3.13 µM | 12 µM | 2.47 µM | 10.8 µM | 2.12 µM | 5.45 µM | 2.01 µM | 6.88 µM | 2.38 µM | 5.79 µM | 4.13 µM | 14.4 µM
4 | O=C1NC(=O)C(c2cnc3ccccn23)=C1c1cn2c3c(cc(F)cc13)CN(C(=O)N1CCCCC1)CC2 | 10.6 µM | 25.4 µM | 7.85 µM | 71.5 µM | 13.3 µM | 66.9 µM | 9.79 µM | > 69.2 µM | 6.89 µM | > 92.1 µM |  | 46.3 µM | 8.74 µM | 44.3 µM | 0.723 µM | 20 µM | 18.1 µM | 40.4 µM | 0.0416 µM | 23.8 µM
5 | Cn1cc(CO)c2c1C(=O)C=C(N1CC1)C2=O | 0.0145 µM | 0.0855 µM | < 0.01 µM | 3.68 µM | < 0.01 µM | 0.0818 µM | 0.353 µM | 7.81 µM | < 0.01 µM | 3.58 µM | < 0.01 µM | 0.0444 µM | 2.68 µM | 18.1 µM | < 0.0189 µM | > 57.3 µM | 0.0198 µM | 0.0692 µM | 0.0215 µM | 
6 | CCCCCCNC(=O)c1cc(NCc2cc(O)ccc2O)ccc1O | 11.5 µM | 29 µM | 23.5 µM | 71.5 µM | 2.16 µM | 7.35 µM | 1.92 µM | 5 µM | 4.83 µM | 36.2 µM | 4.63 µM | 21.1 µM | 0.578 µM | 3.41 µM | 21.6 µM | 44.3 µM | 14.1 µM | 30.4 µM | 10.7 µM | 23.1 µM
7 | CN(C)N=Nc1ccc(NC=O)cc1 |  | > 100 µM |  | > 100 µM |  | > 100 µM |  | > 100 µM |  | > 100 µM |  | > 100 µM |  | > 100 µM |  | > 100 µM |  | > 100 µM |  | > 100 µM
8 | CC(O)CCC(=O)c1ccoc1 (stereo not drawn) |  | > 8110 µM |  | > 7450 µM |  | > 10000 µM |  | > 10000 µM |  | > 10000 µM |  | 9650 µM |  | 7890 µM |  | > 10000 µM |  | > 10000 µM |  | > 10000 µM

Reference: PubChem BioAssay (NCI)
